Source: BindingDB's records for doi:10.1021/jm970459c (Cambridge Neuroscience, 1998)
Structures can show the parent of a compound that is named as a salt.

What follows are molecules tested against Sigma receptor (Cavia porcellus) (assay: Binding assay for the sigma receptor sites is performed by utilizing [3H]N,N-di-o-tolylguanidine ([3H]DTG) and guinea pig brain membrane suspensions).

Going from `CCc1cccc(N(C)C(N)=Nc2cc(Br)cc([S+](C)[O-])c2Br)c1` (configuration not stated) to `CCc1cccc(N(C)C(N)=Nc2cc(Br)cc(CC)c2Br)c1` [N'-(2,5-Dibromo-3-ethyl-phenyl)-N-(3-ethyl-phenyl)-N-methyl-guanidine; hydrochloride], the IC50 falls from 1950 nM to 40 nM (49-fold).

`CCc1cccc(N(C)C(N)=Nc2cc(SC)cc(CC)c2Br)c1` and `CCc1cccc(N(C)C(N)=Nc2cc(CC)cc(CC)c2Br)c1` [N'-(2-Bromo-3,5-diethyl-phenyl)-N-(3-ethyl-phenyl)-N-methyl-guanidine; hydrochloride] are within 1.5-fold of each other in IC50: 299 nM for the first, 203 nM for the second.

`CCc1cccc(N(C)C(N)=Nc2cccc(Cl)c2Cl)c1` [N'-(2,3-Dichloro-phenyl)-N-(3-ethyl-phenyl)-N-methyl-guanidine; hydrochloride] and `CCc1cccc(N(C)C(N)=Nc2ccccc2Cl)c1` [N'-(2-Chloro-phenyl)-N-(3-ethyl-phenyl)-N-methyl-guanidine; hydrochloride] are within 1.5-fold of each other in IC50: 97 nM for the first, 72 nM for the second.

Going from `CCc1cccc(N(C)C(N)=Nc2cc(Br)cc(S(C)(=O)=O)c2Br)c1` [N'-(2,5-Dibromo-3-methanesulfonyl-phenyl)-N-(3-ethyl-phenyl)-N-methyl-guanidine; hydrochloride] to `CCc1cccc(N(C)C(N)=Nc2cc(Br)cc(C(F)(F)F)c2Br)c1` [N'-(2,5-Dibromo-3-trifluoromethyl-phenyl)-N-(3-ethyl-phenyl)-N-methyl-guanidine; hydrochloride], the IC50 falls from 3380 nM to 224 nM (15-fold). The second is the more potent here.

First: CCc1cccc(N(C)C(N)=Nc2cc(Br)cc(OC(F)(F)F)c2Br)c1 [N'-(2,5-Dibromo-3-trifluoromethoxy-phenyl)-N-(3-ethyl-phenyl)-N-methyl-guanidine; hydrochloride]
Second: CCc1cccc(N(C)C(N)=Nc2cc(CC)cc(OC(F)(F)F)c2Br)c1 [N'-(2-Bromo-5-ethyl-3-trifluoromethoxy-phenyl)-N-(3-ethyl-phenyl)-N-methyl-guanidine; hydrochloride]
The IC50 of the first is 2.3-fold lower: 113 nM for the first, 261 nM for the second. The first is the more potent here.

`CCc1cccc(N(C)C(N)=Nc2cc(Cl)cc(SC)c2Cl)c1` [N'-(2,5-Dichloro-3-methylsulfanyl-phenyl)-N-(3-ethyl-phenyl)-N-methyl-guanidine; hydrochloride] and `CCc1cccc(N(C)C(N)=Nc2cc(CC)cc(SC)c2Cl)c1` [N'-(2-Chloro-5-ethyl-3-methylsulfanyl-phenyl)-N-(3-ethyl-phenyl)-N-methyl-guanidine; hydrochloride] are within 1.5-fold of each other in IC50: 130 nM for the first, 178 nM for the second.

Compared with `CCc1cccc(N(C)C(N)=Nc2cc(Cl)cc(C(F)(F)F)c2Cl)c1` [N'-(2,5-Dichloro-3-trifluoromethyl-phenyl)-N-(3-ethyl-phenyl)-N-methyl-guanidine; hydrochloride], `CCc1cccc(N(C)C(N)=Nc2cc(CC)cc(C(F)(F)F)c2Cl)c1` [N'-(2-Chloro-5-ethyl-3-trifluoromethyl-phenyl)-N-(3-ethyl-phenyl)-N-methyl-guanidine; hydrochloride] is 1.8-fold higher in IC50: 110 nM for the first, 200 nM for the second.

`CCc1cccc(N(C)C(N)=Nc2cc(Cl)ccc2Cl)c1` [N'-(2,5-Dichloro-phenyl)-N-(3-ethyl-phenyl)-N-methyl-guanidine; hydrochloride] and `CCc1cccc(N(C)C(N)=Nc2ccc(Cl)c(Cl)c2)c1` [N'-(3,4-Dichloro-phenyl)-N-(3-ethyl-phenyl)-N-methyl-guanidine; hydrochloride] are within 1.5-fold of each other in IC50: 29 nM for the first, 39 nM for the second.

Compared with `CCc1cccc(N(C)C(N)=Nc2cc(C(F)(F)F)cc(CC)c2Br)c1` [N'-(2-Bromo-3-ethyl-5-trifluoromethyl-phenyl)-N-(3-ethyl-phenyl)-N-methyl-guanidine; hydrochloride], `CCc1cccc(N(C)C(N)=Nc2cc(C(F)(F)F)cc(CC)c2Cl)c1` [N'-(2-Chloro-3-ethyl-5-trifluoromethyl-phenyl)-N-(3-ethyl-phenyl)-N-methyl-guanidine; hydrochloride] is 1.8-fold lower in IC50: 205 nM for the first, 115 nM for the second. The second is the more potent here.

`CCc1cccc(N(C)C(N)=Nc2cc(CC)cc(SC)c2Br)c1` [N'-(2-Bromo-5-ethyl-3-methylsulfanyl-phenyl)-N-(3-ethyl-phenyl)-N-methyl-guanidine; hydrochloride] and `CCc1cccc(N(C)C(N)=Nc2cc(CC)cc(C(F)(F)F)c2Br)c1` [N'-(2-Bromo-5-ethyl-3-trifluoromethyl-phenyl)-N-(3-ethyl-phenyl)-N-methyl-guanidine; hydrochloride] are within 1.5-fold of each other in IC50: 180 nM for the first, 221 nM for the second.

Going from `CCc1cccc(N(C)C(N)=Nc2ccccc2Br)c1` [N'-(2-Bromo-phenyl)-N-(3-ethyl-phenyl)-N-methyl-guanidine; hydrochloride] to `CCc1cccc(N(C)C(N)=Nc2ccccc2C(C)C)c1` [N-(3-Ethyl-phenyl)-N'-(2-isopropyl-phenyl)-N-methyl-guanidine; hydrochloride], the IC50 rises from 125 nM to 362 nM (2.9-fold). The first is the more potent here.

`CCc1cccc(N(C)C(N)=Nc2cc(CC)cc(CC)c2Cl)c1` [N'-(2-Chloro-3,5-diethyl-phenyl)-N-(3-ethyl-phenyl)-N-methyl-guanidine; hydrochloride] and `CCc1cccc(N(C)C(N)=Nc2cc(CC)cc(CC)c2F)c1` [N'-(3,5-Diethyl-2-fluoro-phenyl)-N-(3-ethyl-phenyl)-N-methyl-guanidine; hydrochloride] are within 1.5-fold of each other in IC50: 112 nM for the first, 113 nM for the second.

`CCc1cccc(N(C)C(N)=Nc2cc(C)cc(CC)c2Cl)c1` [N'-(2-Chloro-3-ethyl-5-methyl-phenyl)-N-(3-ethyl-phenyl)-N-methyl-guanidine; hydrochloride] and `CCc1cccc(N(C)C(N)=Nc2cccc(Cl)c2)c1` [N'-(3-Chloro-phenyl)-N-(3-ethyl-phenyl)-N-methyl-guanidine; hydrochloride] are within 1.5-fold of each other in IC50: 45 nM for the first, 44 nM for the second.

Going from `CCc1cccc(N(C)C(N)=Nc2cccc(Br)c2)c1` [N'-(3-Bromo-phenyl)-N-(3-ethyl-phenyl)-N-methyl-guanidine; hydrochloride] to `CCc1cccc(N(C)C(N)=Nc2cccc(SC)c2)c1` [N-(3-Ethyl-phenyl)-N-methyl-N'-(3-methylsulfanyl-phenyl)-guanidine; hydrochloride], the IC50 rises from 40 nM to 164 nM (4.1-fold).

Going from `CCc1cccc(N(C)C(N)=Nc2ccc(Cl)cc2)c1` [N'-(4-Chloro-phenyl)-N-(3-ethyl-phenyl)-N-methyl-guanidine; hydrochloride] to `CCc1cccc(NC(N)=Nc2cccc(Cl)c2)c1` [N-(3-Chloro-phenyl)-N'-(3-ethyl-phenyl)-guanidine; hydrochloride], the IC50 falls from 46 nM to 27 nM (1.7-fold).

`CCc1cccc(NC(N)=Nc2cccc(Cl)c2Cl)c1` [N-(2,3-Dichloro-phenyl)-N'-(3-ethyl-phenyl)-guanidine; hydrochloride] and `CCc1cccc(NC(N)=Nc2c(Cl)cccc2Cl)c1` [N-(2,6-Dichloro-phenyl)-N'-(3-ethyl-phenyl)-guanidine; hydrochloride] are within 1.5-fold of each other in IC50: 13 nM for the first, 14 nM for the second.

Compared with `CCc1cccc(NC(N)=Nc2ccc(Cl)cc2Cl)c1` [N-(2,4-Dichloro-phenyl)-N'-(3-ethyl-phenyl)-guanidine; hydrochloride], `CCc1cccc(NC(N)=Nc2cc(Cl)ccc2Cl)c1` [N-(2,5-Dichloro-phenyl)-N'-(3-ethyl-phenyl)-guanidine; hydrochloride] is 3.1-fold lower in IC50: 37 nM for the first, 12 nM for the second. The second is the more potent here.

Going from `CCc1cccc(N(C)C(=N)N(C)c2cc(Br)ccc2Br)c1` [N-(2,5-Dibromo-phenyl)-N'-(3-ethyl-phenyl)-N,N'-dimethyl-guanidine; hydrochloride] to `CCc1cccc(NC(N)=Nc2cccc(Br)c2)c1` [N-(3-Bromo-phenyl)-N'-(3-ethyl-phenyl)-guanidine; hydrochloride], the IC50 falls from 381 nM to 10 nM (38-fold).

Compared with `CCc1cccc(NC(N)=Nc2ccccc2CC)c1` [N-(2-Ethyl-phenyl)-N'-(3-ethyl-phenyl)-guanidine; hydrochloride], `CCc1cccc(NC(N)=Nc2ccccc2C)c1` [N-(3-Ethyl-phenyl)-N'-o-tolyl-guanidine; hydrochloride] is 1.7-fold lower in IC50: 19 nM for the first, 11 nM for the second. The second is the more potent here.

First: CCc1cccc(NC(N)=Nc2ccc(Cl)c(Cl)c2)c1 [N-(3,4-Dichloro-phenyl)-N'-(3-ethyl-phenyl)-guanidine; hydrochloride]
Second: CCc1cccc(NC(N)=Nc2cc(Cl)cc(Cl)c2)c1 [N-(3,5-Dichloro-phenyl)-N'-(3-ethyl-phenyl)-guanidine; hydrochloride]
The IC50 of the first is 2.2-fold lower: 32 nM for the first, 70 nM for the second.

First: CCc1cc(CC)cc(N=C(N)Nc2cccc(CC)c2)c1 [N-(3,5-Diethyl-phenyl)-N'-(3-ethyl-phenyl)-guanidine; hydrochloride]
Second: CCc1cccc(NC(N)=Nc2ccccc2C(C)C)c1 [N-(3-Ethyl-phenyl)-N'-(2-isopropyl-phenyl)-guanidine; hydrochloride]
The IC50 of the first is 2.6-fold lower: 8 nM for the first, 21 nM for the second. The first is the more potent here.
